Laboratory results as given in patent publication US10870647B2, “Imidazopyridine derivative, method for preparing same, and pharmaceutical composition containing same as active ingredient for preventing or treating cancer” (DAEGU-GYEONGBUK MEDICAL INNOVATION FOUNDATION, priority 2016, dated 2020).

Key:
Assay in all cases: Kinase selectivity, scanMAX Kinase assay panel (DiscoverX), % control at 1 uM
Format in all cases: binding
[1] = biological target: T1, scanMAX Kinase assay panel (Homo sapiens, UniProt P15056, V600E); conditions: BRAF (V600E); 1 uM; read-out: Percent Control (%)
T1 construct: purchased DiscoverX
T1 sequence (P15056 whole entry V600E): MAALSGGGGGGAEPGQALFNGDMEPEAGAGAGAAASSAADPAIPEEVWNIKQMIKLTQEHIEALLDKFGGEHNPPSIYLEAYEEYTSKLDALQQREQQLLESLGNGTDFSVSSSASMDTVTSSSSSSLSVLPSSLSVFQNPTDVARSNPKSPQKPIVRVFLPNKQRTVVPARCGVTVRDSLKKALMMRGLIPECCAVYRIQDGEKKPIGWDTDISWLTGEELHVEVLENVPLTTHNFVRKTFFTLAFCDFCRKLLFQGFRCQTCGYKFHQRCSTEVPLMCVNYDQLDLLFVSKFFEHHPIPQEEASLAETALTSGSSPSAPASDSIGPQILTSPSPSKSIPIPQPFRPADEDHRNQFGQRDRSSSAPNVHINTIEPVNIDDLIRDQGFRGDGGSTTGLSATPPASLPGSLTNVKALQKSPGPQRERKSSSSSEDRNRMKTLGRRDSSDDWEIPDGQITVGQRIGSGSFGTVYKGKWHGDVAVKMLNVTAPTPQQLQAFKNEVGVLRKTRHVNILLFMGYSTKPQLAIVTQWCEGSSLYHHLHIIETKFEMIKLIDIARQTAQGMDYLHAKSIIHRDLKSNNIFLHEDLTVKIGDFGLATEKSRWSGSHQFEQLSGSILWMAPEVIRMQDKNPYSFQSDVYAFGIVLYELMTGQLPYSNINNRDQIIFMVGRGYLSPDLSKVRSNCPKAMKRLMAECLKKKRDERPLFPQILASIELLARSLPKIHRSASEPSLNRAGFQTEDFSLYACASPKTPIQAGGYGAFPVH
Outline: (§1)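 1 uM cpd (DMSO) per kinase; % ctrl = [cpd − pos ctrl]/[neg ctrl − pos ctrl] × 100; hit if <35.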

[2] = biological target: T2, scanMAX Kinase assay panel (Homo sapiens, UniProt O15197); conditions: EPHB6; 1 uM; read-out: Percent Control (%)
T2 construct: purchased DiscoverX
T2 sequence (O15197 32-1021): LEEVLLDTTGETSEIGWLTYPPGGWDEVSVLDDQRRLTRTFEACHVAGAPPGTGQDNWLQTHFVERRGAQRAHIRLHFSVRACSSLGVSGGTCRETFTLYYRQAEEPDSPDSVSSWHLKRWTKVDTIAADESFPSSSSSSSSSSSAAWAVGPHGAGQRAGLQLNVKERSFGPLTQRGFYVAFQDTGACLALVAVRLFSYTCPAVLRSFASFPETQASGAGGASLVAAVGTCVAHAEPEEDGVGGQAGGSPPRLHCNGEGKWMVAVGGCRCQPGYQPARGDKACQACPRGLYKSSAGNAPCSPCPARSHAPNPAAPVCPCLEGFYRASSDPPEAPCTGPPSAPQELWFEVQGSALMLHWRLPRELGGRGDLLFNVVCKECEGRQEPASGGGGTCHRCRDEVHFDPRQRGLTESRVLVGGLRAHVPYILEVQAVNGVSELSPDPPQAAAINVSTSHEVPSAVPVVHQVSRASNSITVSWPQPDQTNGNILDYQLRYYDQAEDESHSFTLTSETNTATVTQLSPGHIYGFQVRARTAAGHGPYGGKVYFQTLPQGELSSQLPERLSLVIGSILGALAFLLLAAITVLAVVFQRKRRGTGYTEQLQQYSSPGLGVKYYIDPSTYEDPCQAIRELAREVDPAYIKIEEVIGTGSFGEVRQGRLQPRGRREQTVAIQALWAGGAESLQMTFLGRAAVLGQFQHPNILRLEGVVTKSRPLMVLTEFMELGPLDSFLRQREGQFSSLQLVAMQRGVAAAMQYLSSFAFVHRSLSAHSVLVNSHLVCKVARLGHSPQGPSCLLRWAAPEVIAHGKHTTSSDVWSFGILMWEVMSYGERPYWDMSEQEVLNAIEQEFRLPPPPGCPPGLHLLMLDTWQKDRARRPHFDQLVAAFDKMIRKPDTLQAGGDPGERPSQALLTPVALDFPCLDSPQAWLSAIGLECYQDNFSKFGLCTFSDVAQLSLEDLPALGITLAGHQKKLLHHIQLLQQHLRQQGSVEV
Outline: as §1

[3] = biological target: T3, scanMAX Kinase assay panel (Homo sapiens, UniProt O76039); conditions: CDKL5; 1 uM; read-out: Percent Control (%)
T3 construct: purchased DiscoverX
T3 sequence (O76039 1-960): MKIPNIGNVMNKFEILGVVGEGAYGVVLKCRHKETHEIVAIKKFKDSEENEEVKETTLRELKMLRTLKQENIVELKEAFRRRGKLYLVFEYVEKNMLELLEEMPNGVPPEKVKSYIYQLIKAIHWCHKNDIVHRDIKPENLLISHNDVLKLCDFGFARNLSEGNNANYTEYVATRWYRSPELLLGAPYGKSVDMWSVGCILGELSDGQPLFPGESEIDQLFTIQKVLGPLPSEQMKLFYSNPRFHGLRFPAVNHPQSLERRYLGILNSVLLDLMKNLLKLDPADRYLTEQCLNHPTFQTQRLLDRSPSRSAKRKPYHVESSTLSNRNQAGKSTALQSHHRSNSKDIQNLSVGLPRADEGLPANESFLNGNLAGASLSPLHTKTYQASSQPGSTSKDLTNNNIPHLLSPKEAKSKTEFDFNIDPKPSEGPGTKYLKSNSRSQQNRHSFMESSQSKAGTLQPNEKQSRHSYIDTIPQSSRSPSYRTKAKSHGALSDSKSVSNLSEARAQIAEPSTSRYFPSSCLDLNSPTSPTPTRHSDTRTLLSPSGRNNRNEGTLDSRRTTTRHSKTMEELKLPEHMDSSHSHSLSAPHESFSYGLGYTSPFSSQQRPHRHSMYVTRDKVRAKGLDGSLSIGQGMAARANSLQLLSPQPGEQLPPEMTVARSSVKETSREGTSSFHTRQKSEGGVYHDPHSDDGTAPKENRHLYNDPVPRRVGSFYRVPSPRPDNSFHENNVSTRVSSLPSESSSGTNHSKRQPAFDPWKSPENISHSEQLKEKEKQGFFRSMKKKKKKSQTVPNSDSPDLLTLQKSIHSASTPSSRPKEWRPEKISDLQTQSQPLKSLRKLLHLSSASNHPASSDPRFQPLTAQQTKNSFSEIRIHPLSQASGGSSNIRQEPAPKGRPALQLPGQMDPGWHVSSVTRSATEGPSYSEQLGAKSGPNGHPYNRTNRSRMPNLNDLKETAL
Outline: as §1

Structure (SMILES)	remaining binding at 1 µM [1] [%]	remaining binding at 1 µM [2] [%]	remaining binding at 1 µM [3] [%]
Cc1ccc(C(=O)Nc2ccc(CN3CCN(C)CC3)c(C(F)(F)F)c2)cc1C#Cc1cnc2c(Nc3cnn(C)c3)cccn12 [Example 1, 4-methyl-3-((8-((1-methyl-1H-pyrazol-4-yl)amino)imidazo[1,2-a]pyridin-3-yl)ethynyl)-N-(4-((4-methylpiperazin-1-yl)methyl)-3-(trifluoromethyl)phenyl)benzamide]	5	1	94
Cc1cn(-c2cc(NC(=O)c3ccc(C)c(C#Cc4cnc5c(Nc6cnn(C)c6)cccn45)c3)cc(C(F)(F)F)c2)cn1 [Example 12, 4-methyl-N-(3-(4-methyl-1H-imidazol-1-yl)-5-(trifluoromethyl)phenyl)-3-((8-((1-methyl-1H-pyrazol-4-yl)amino)imidazo[1,2-a]pyridin-3-yl)ethynyl)benzamide]	56	0	100
Cc1ccc(NC(=O)C2(C(=O)Nc3ccc(F)cc3)CC2)cc1C#Cc1cnc2c(Nc3cnn(C(C)C)c3)cccn12 [Example 78]	100	0	92
